Measured values taken from the supplement of paper PMC11208160.

Experiment: recombinant UMI read abundance after kanamycin selection (control-corrected) (log10(CPM+1)); higher = more efficient recombination; extreme values may be limits of the assay; sequences stand for … in AGTGCAGAGAAAATCGGCCAGTTTTCTCTGCCTGCAGTCCGCATGCCGTGGGACCCCTTGGGTTCTAACCTGTTGCCTAGATTTATGCAGCGGACTGCCTTTCTCCCAAAGTGATAAACCGG…AGGTTGGTTTCACT; site = the 11-nt donor
Protocol: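 Pooled E. coli donor-specificity screen for the IS621 bridge recombinase. Each library member carries a reprogrammed 11-nt donor and a full-length LE bridge RNA expressed in cis from the natural promoter, with a paired donor-binding loop (8-nt LDG + 4-nt RDG) and a target-binding loop fixed to T5. It is co-electroporated with a T5 target plasmid; recombinase is induced with 0.07 mM IPTG and recombinants are selected on kanamycin. UMIs are counted as CPM, averaged over two biological replicates and corrected by the unselected control. Molecule = full bridge RNA written as DNA, built from the T5 scaffold: LDG = donor specificity nt 1-8, RDG = reverse complement of nt 8-11.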
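Also: IS621 bridge recombinase in Escherichia coli cells against a fixed T5 target plasmid.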

Row | Sequence | recombinant UMI read abundance (log10)
1 | AAAACACCATGGACCGGTTTTCCCGGTAATCCGTATTTGCG (site AAAACACCTCG) | 0.012
2 | AAAACCCCATGGACCGGTTTTCCCGGTAATCCGTATTTGGA (site AAAACCCCTTC) | 0.00874
3 | AAAACTACATGGACCGGTTTTCCCGGTAATCCGTATTTGCG (site AAAACTACTCG) | 1.1
4 | AAAAGAACATGGACCGGTTTTCCCGGTAATCCGTATTTGAA (site AAAAGAACTTT) | 2.03
5 | AAAAGACCATGGACCGGTTTTCCCGGTAATCCGTATTTGTA (site AAAAGACCTTA) | 0
6 | AAAAGCACATGGACCGGTTTTCCCGGTAATCCGTATTTGCA (site AAAAGCACTTG) | 2.36
7 | AAACATACATGGACCGGTTTTCCCGGTAATCCGTATTTGTG (site AAACATACTCA) | 1.38
8 | AAACCAGCATGGACCGGTTTTCCCGGTAATCCGTATTTGGC (site AAACCAGCTGC) | 0
9 | AAAGCTCCATGGACCGGTTTTCCCGGTAATCCGTATTTGCG (site AAAGCTCCTCG) | 0.472
10 | AAAGCTTCATGGACCGGTTTTCCCGGTAATCCGTATTTGGG (site AAAGCTTCTCC) | 0.447
11 | AAAGGGGCATGGACCGGTTTTCCCGGTAATCCGTATTTGGG (site AAAGGGGCTCC) | 0
12 | AAAGTAGCATGGACCGGTTTTCCCGGTAATCCGTATTTGGC (site AAAGTAGCTGC) | 2.01
13 | AAAGTCACATGGACCGGTTTTCCCGGTAATCCGTATTTGAC (site AAAGTCACTGT) | 2.44
14 | AAATATTCATGGACCGGTTTTCCCGGTAATCCGTATTTGGG (site AAATATTCTCC) | 0.372
15 | AAATCAGCATGGACCGGTTTTCCCGGTAATCCGTATTTGTT (site AAATCAGCTAA) | 0.425
16 | AAATCGTCATGGACCGGTTTTCCCGGTAATCCGTATTTGCT (site AAATCGTCTAG) | 2.36
17 | AACAGACCATGGACCGGTTTTCCCGGTAATCCGTATTTGCG (site AACAGACCTCG) | 0
18 | AACAGACCATGGACCGGTTTTCCCGGTAATCCGTATTTGTA (site AACAGACCTTA) | 1.25
19 | AACAGCCCATGGACCGGTTTTCCCGGTAATCCGTATTTGCA (site AACAGCCCTTG) | 0.756
20 | AACAGCGCATGGACCGGTTTTCCCGGTAATCCGTATTTGAC (site AACAGCGCTGT) | 2
21 | AACATGCCATGGACCGGTTTTCCCGGTAATCCGTATTTGCT (site AACATGCCTAG) | 1.43
22 | AACCAAACATGGACCGGTTTTCCCGGTAATCCGTATTTGAA (site AACCAAACTTT) | 1.31
23 | AACCCAACATGGACCGGTTTTCCCGGTAATCCGTATTTGAC (site AACCCAACTGT) | 2.68
24 | AACCGACCATGGACCGGTTTTCCCGGTAATCCGTATTTGAT (site AACCGACCTAT) | 0.0205

Row | Sequence | recombinant UMI read abundance (log10)
25 | AACCGACCATGGACCGGTTTTCCCGGTAATCCGTATTTGAT (site AACCGCCCTAT) | 0
26 | AACCGACCATGGACCGGTTTTCCCGGTAATCCGTATTTGAT (site AACCGGCCTAT) | 0.0183
27 | AACCGACCATGGACCGGTTTTCCCGGTAATCCGTATTTGAT (site AACCGTCCTAT) | 0.0119
28 | AACCGTGCATGGACCGGTTTTCCCGGTAATCCGTATTTGTG (site AACCGTGCTCA) | 0.0421
29 | AACCTTCCATGGACCGGTTTTCCCGGTAATCCGTATTTGAT (site AACCATCCTAT) | 0.00673
30 | AACCTTCCATGGACCGGTTTTCCCGGTAATCCGTATTTGAT (site AACCCTCCTAT) | 0.0165
31 | AACCTTCCATGGACCGGTTTTCCCGGTAATCCGTATTTGAT (site AACCGTCCTAT) | 0.0124
32 | AACCTTCCATGGACCGGTTTTCCCGGTAATCCGTATTTGAT (site AACCTTCCTAT) | 0
33 | AACGATGCATGGACCGGTTTTCCCGGTAATCCGTATTTGAC (site AACGATGCTGT) | 2.22
34 | AACGCCGCATGGACCGGTTTTCCCGGTAATCCGTATTTGTC (site AACGCCGCTGA) | 2.24
35 | AACGGTCCATGGACCGGTTTTCCCGGTAATCCGTATTTGAT (site AACAGTCCTAT) | 0.00739
36 | AACGGTCCATGGACCGGTTTTCCCGGTAATCCGTATTTGAT (site AACCGTCCTAT) | 0
37 | AACGGTCCATGGACCGGTTTTCCCGGTAATCCGTATTTGAT (site AACGGTCCTAT) | 0
38 | AACGGTCCATGGACCGGTTTTCCCGGTAATCCGTATTTGAT (site AACTGTCCTAT) | 0.145
39 | AACGTAACATGGACCGGTTTTCCCGGTAATCCGTATTTGCT (site AAAGTAACTAG) | 0.893
40 | AACGTAACATGGACCGGTTTTCCCGGTAATCCGTATTTGCT (site AACGTAACTAG) | 2.51
41 | AACGTAACATGGACCGGTTTTCCCGGTAATCCGTATTTGCT (site AAGGTAACTAG) | 0.524
42 | AACGTAACATGGACCGGTTTTCCCGGTAATCCGTATTTGCT (site AATGTAACTAG) | 1.49
43 | AACGTATCATGGACCGGTTTTCCCGGTAATCCGTATTTGCA (site AACGTATCTTG) | 2.73
44 | AACGTATCATGGACCGGTTTTCCCGGTAATCCGTATTTGCA (site ACAGTATCTTG) | 1.07
45 | AACGTCTCATGGACCGGTTTTCCCGGTAATCCGTATTTGTC (site AACGTCTCTGA) | 3.05
46 | AACGTGTCATGGACCGGTTTTCCCGGTAATCCGTATTTGTT (site AACGTGTCTAA) | 2.59
47 | AACTAGACATGGACCGGTTTTCCCGGTAATCCGTATTTGAG (site AACTAGACTCT) | 1.48
48 | AACTATACATGGACCGGTTTTCCCGGTAATCCGTATTTGGT (site AACTATACTAC) | 1.26

Row | Sequence | recombinant UMI read abundance (log10)
49 | AACTCATCATGGACCGGTTTTCCCGGTAATCCGTATTTGAA (site AACTCATCTTT) | 1.19
50 | AACTCGCCATGGACCGGTTTTCCCGGTAATCCGTATTTGCT (site AACTCGCCTAG) | 1.56
51 | AACTCGCCATGGACCGGTTTTCCCGGTAATCCGTATTTGTT (site AACTCGCCTAA) | 0.0268
52 | AACTGGTCATGGACCGGTTTTCCCGGTAATCCGTATTTGAC (site AACTGGTCTGT) | 1.18
53 | AAGAATTCATGGACCGGTTTTCCCGGTAATCCGTATTTGTA (site AAGAATTCTTA) | 2.33
54 | AAGACCGCATGGACCGGTTTTCCCGGTAATCCGTATTTGCC (site AAGACCGCTGG) | 2.73
55 | AAGATGCCATGGACCGGTTTTCCCGGTAATCCGTATTTGTG (site AAGATGCCTCA) | 0.653
56 | AAGATTCCATGGACCGGTTTTCCCGGTAATCCGTATTTGTA (site AAGATTCCTTA) | 1.3
57 | AAGCACGCATGGACCGGTTTTCCCGGTAATCCGTATTTGAG (site AAGCACGCTCA) | 0.629
58 | AAGCACGCATGGACCGGTTTTCCCGGTAATCCGTATTTGAG (site AAGCACGCTCC) | 0.225
59 | AAGCACGCATGGACCGGTTTTCCCGGTAATCCGTATTTGAG (site AAGCACGCTCG) | 0.644
60 | AAGCACGCATGGACCGGTTTTCCCGGTAATCCGTATTTGAG (site AAGCACGCTCT) | 1.49
61 | AAGCACGCATGGACCGGTTTTCCCGGTAATCCGTATTTGCG (site AAGCACGCTCA) | 0.289
62 | AAGCACGCATGGACCGGTTTTCCCGGTAATCCGTATTTGCG (site AAGCACGCTCC) | 0.223
63 | AAGCACGCATGGACCGGTTTTCCCGGTAATCCGTATTTGCG (site AAGCACGCTCG) | 1.44
64 | AAGCACGCATGGACCGGTTTTCCCGGTAATCCGTATTTGCG (site AAGCACGCTCT) | 0.766
65 | AAGCACGCATGGACCGGTTTTCCCGGTAATCCGTATTTGGC (site AAGCACGCTAC) | 0.701
66 | AAGCACGCATGGACCGGTTTTCCCGGTAATCCGTATTTGGC (site AAGCACGCTCC) | 0.0935
67 | AAGCACGCATGGACCGGTTTTCCCGGTAATCCGTATTTGGC (site AAGCACGCTGC) | 2.71
68 | AAGCACGCATGGACCGGTTTTCCCGGTAATCCGTATTTGGC (site AAGCACGCTTC) | 0.476
69 | AAGCACGCATGGACCGGTTTTCCCGGTAATCCGTATTTGGT (site AAGCACGCTAC) | 1.48
70 | AAGCACGCATGGACCGGTTTTCCCGGTAATCCGTATTTGGT (site AAGCACGCTCC) | 0.315
71 | AAGCACGCATGGACCGGTTTTCCCGGTAATCCGTATTTGGT (site AAGCACGCTGC) | 1.24
72 | AAGCACGCATGGACCGGTTTTCCCGGTAATCCGTATTTGGT (site AAGCACGCTTC) | 0.427
